Results on eleven compounds are retold here after patent EP4745196A1, “RESIN COMPOSITION” (LG Chem, Ltd., priority 2023, dated 2025).

Where only a bound is given, the exact number is not on record here.

The first data set is described as follows: Measurement of pyrolysis temperature by differential scanning calorimeter. In kind it is physicochemical. The note with it: endothermic substance; DSC, heating rate 10°C/min, temperature at maximum heat flow. How it is done: The endothermic substance may have a pyrolysis temperature of 50°C or more. The pyrolysis temperature of the endothermic substance may be 300°C or less. The pyrolysis temperature may also be referred to as a temperature at which the endothermic substance undergoes an endothermic reaction (endothermic reaction temperature). The pyrolysis may mean that a material is chemically decomposed into a simpler material when heat has been applied thereto. The pyrolysis temperature may mean a temperature at which the pyrolysis occurs. The pyrolysis temperature of the endothermic substance may be 300°C or less, 280°C or less, 260°C or less, 240°C or less, 220°C or less, 200°C or less, 180°C or less, 160°C or less, 140°C or less, 120°C or less, or 100°C or less. The pyrolysis temperature of the endothermic substance may be specifically 50°C or more, 60°C or more, 70°C or more, 80°C or more, 90°C or more, 100°C or more, 120°C or more, 140°C or more, 160°C or more, or 180°C or more. When the endothermic substance is heated to the pyrolysis temperature, it may be decomposed into components constituting the endothermic substance through endotherm. When the pyrolysis temperature of the endothermic substance is within the range, there is no or little endothermic reaction at a normal operating temperature of the battery, and if the thermal runaway of the battery occurs, a cooling effect may be provided to the ignited battery cell through the endothermic reaction (e.g., pyrolysis) of the endothermic substance, and it may be advantageous in terms of delaying thermal transfer to adjacent battery cells. The pyrolysis temperature may be a value measured while increasing the temperature at a rate of 10°C/min using a differential scanning calorimeter (DSC Q2000, TA Corporation). From the differential scanning calorimeter, a graph may be obtained in which the x-axis is temperatures (°C) and the y-axis is heat flows (W/g), and in the graph, the temperature at the point where a heat flow (W/g) value, for example, an absolute value of a heat flow (W/g) is maximum may be set as the pyrolysis temperature.
For endothermic substances used in Examples and Comparative Examples, pyrolysis temperatures were measured while increasing the temperature at a rate of 10°C/min using a differential scanning calorimeter (DSC Q2000, TA Corporation), and the results were described in Table 1. Specifically, 0.2 to 0.5 mg of a sample was placed in a crucible of the differential scanning calorimeter, and then a lid with a single hole penetrated with a punching needle was covered thereon. In a state where the crucible was placed in the center of a press, and a plunger was moved downward by turning a lever until no pressure was further applied downward, the crucible and lid were placed in the differential scanning calorimeter equipment, and a thermal analysis was performed. From the differential scanning calorimeter, a graph with temperature (°C) on the x-axis and heat flow (W/g) on the y-axis could be obtained, and the temperature at the point where the heat flow (W/g) value is maximum in the graph was defined as the pyrolysis temperature.
Compound `[Cl-].[Cl-].[Mg+2]` [MgCl2] gave a Pyrolysis temperature of 714 °C.
On the same count and under the same terms, to `[Cl-].[K+]` [KCl] belongs 770 °C.
Same read-out and setting: for `O.O.O.O.O.O.O.O.O.O.O.O.O.O.O.O.O.O.O=S(=O)([O-])[O-].O=S(=O)([O-])[O-].O=S(=O)([O-])[O-].[Al+3].[Al+3]` [Al2(SO4)3·18H2O] the value was 102 °C; for `O.O.O.O.O.O.O.O.O.O.O.O.O=S(=O)([O-])[O-].O=S(=O)([O-])[O-].[Al+3].[K+]` [KAl(SO4)2·12H2O], 90 °C; for `[O]=[Mg]` [MgO], 2800 °C.
The same measure, in the same setting: for `O.O.O.O.O.O.[Cl-].[Cl-].[Mg+2]` [MgCl2·6H2O] the value was 107 °C.
`[Cl-].[Na+]` [NaCl] registered a Pyrolysis temperature of 801 °C.
Same read-out and setting: to `[OH][Al]([OH])[OH]` [Al(OH)3] belongs 297 °C; to `[O]=[Al][O][Al]=[O]` [Al2O3], 2000 °C; to `OB(O)O` [Example H3BO3, H3BO3], 136 °C.
`[Mg+2].[OH-].[OH-]` [Mg(OH)2] came in with a Pyrolysis temperature of 330 °C.

A further data set is described as follows: Measurement of solubility in water. It is filed as physicochemical. As to conditions: endothermic substance; 20°C, added by 1g to 100 ml of water until precipitate. On the procedure: The endothermic substance may be a water-soluble substance.
Specifically, while the samples were each added by 1g to 100 ml of water at 20°C, the weight of the sample before a precipitate occurred was measured. The presence of the precipitate was visually observed; if no precipitate has occurred, it is observed transparently.
For `[Cl-].[K+]` [KCl], the Solubility in water is recorded as ≥ 30 g/100ml.
Still for that read-out and setting: to `[O]=[Mg]` [MgO] belongs 0 g/100ml; to `[O]=[Al][O][Al]=[O]` [Al2O3], 0 g/100ml.

Assay in the next data set: not given
As to conditions: endothermic substance; cited from earlier work.
As for `[Cl-].[Cl-].[Mg+2]` [MgCl2], the Thermal conductivity is listed as 0.5 W/mK.
Turning to `[Cl-].[K+]` [KCl], the Thermal conductivity is reported as 6.53 W/mK.
`O.O.O.O.O.O.O.O.O.O.O.O.O.O.O.O.O.O.O=S(=O)([O-])[O-].O=S(=O)([O-])[O-].O=S(=O)([O-])[O-].[Al+3].[Al+3]` [Al2(SO4)3·18H2O]: the Thermal conductivity is listed as 0.24~0.31 W/mK.
`O.O.O.O.O.O.O.O.O.O.O.O.O=S(=O)([O-])[O-].O=S(=O)([O-])[O-].[Al+3].[K+]` [KAl(SO4)2·12H2O]: the Thermal conductivity is reported as 0.55 W/mK.
Take `[O]=[Mg]` [MgO]: the Thermal conductivity was 30 W/mK.
With `O.O.O.O.O.O.[Cl-].[Cl-].[Mg+2]` [MgCl2·6H2O], the Thermal conductivity is 0.15~0.96 W/mK.
`[Cl-].[Na+]` [NaCl]: the Thermal conductivity was 3.13~3.87 W/mK.
`[OH][Al]([OH])[OH]` [Al(OH)3]: the Thermal conductivity was 26 W/mK.
On to `[O]=[Al][O][Al]=[O]` [Al2O3], for which the Thermal conductivity was 18 W/mK.
`OB(O)O` [Example H3BO3, H3BO3]: the Thermal conductivity is reported as 1 or less W/mK.
With `[Mg+2].[OH-].[OH-]` [Mg(OH)2], the Thermal conductivity is recorded as 42~60 W/mK.
